Assay results reported in ChEMBL document CHEMBL1201862, “PubChem BioAssay data set” (2004).
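Dose response: 5 concentrations. Exposure: 48 h. Format: 96-well plates. Endpoint: linear interpolation; highest concentration if not reached. GI50 is the concentration that inhibits growth by half.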 Activity calls are given as the source filed them. Cut-off read from the data, not from the text of the source: active = GI50 up to about 1.1 µM and inactive = higher.

Assays:
Assay in all cases: NCI anticancer screen, dose series, 48 h
DLD-1 = system: DLD-1
KM-20L2 = system: KM-20L2
SF-295 = system: SF-295
RPMI-8226 = system: RPMI-8226
U-251 = system: U-251
OVCAR-5 = system: OVCAR-5
SK-MEL-5 = system: SK-MEL-5
M14 = system: M14
UACC-62 = system: UACC-62
XF498 = system: XF498
SNB-75 = system: SNB-75
A549 = system: A549
SW-620 = system: SW-620
A498 = system: A498
NCI-H226 = system: NCI-H226
SNB-19 = system: SNB-19
NCI-H23 = system: NCI-H23
RXF 631 = system: RXF 631
HOP-18 = system: HOP-18
LXFL 529 = system: LXFL 529
M19-MEL = system: M19-MEL
NCI-H460 = system: NCI-H460
OVCAR-8 = system: OVCAR-8
HOP-62 = system: HOP-62
OVCAR-3 = system: OVCAR-3
MOLT-4 = system: MOLT-4
SF-268 = system: SF-268
EKVX = system: EKVX
HCT-116 = system: HCT-116
SR = system: SR
SNB-78 = system: SNB-78
CAKI-1 = system: CAKI-1
786-0 = system: 786-0
HOP-92 = system: HOP-92
HL-60 = system: HL-60
UACC-257 = system: UACC-257
K562 = system: K562
UO-31 = system: UO-31
Malme-3M = system: Malme-3M
SN12C = system: SN12C
SK-OV-3 = system: SK-OV-3
SK-MEL-2 = system: SK-MEL-2
RXF 393 = system: RXF 393
SF-539 = system: SF-539
COLO 205 = system: COLO 205
OVCAR-4 = system: OVCAR-4
KM12 = system: KM12
ACHN = system: ACHN
IGROV-1 = system: IGROV-1
SK-MEL-28 = system: SK-MEL-28
HCT-15 = system: HCT-15
TK-10 = system: TK-10
NCI-H522 = system: NCI-H522
CCRF-CEM = system: CCRF-CEM
HT-29 = system: HT-29
DMS-273 = system: DMS-273
LOX IMVI = system: LOX IMVI
HCC 2998 = system: HCC 2998
DMS-114 = system: DMS-114

COc1cc2c(c(O)c1O)-c1ccc(OC)c(=O)cc1C(NC(C)=O)CC2 (centres undefined)
GI50 (DLD-1): 29.6 µM (inactive)
GI50 (KM-20L2): 3.8 µM (inactive)
GI50 (SF-295): 12.5 µM (inactive)
GI50 (RPMI-8226): 3.86 µM (inactive)
GI50 (U-251): 4.88 µM (inactive)
GI50 (OVCAR-5): 76.6 µM (inactive)
GI50 (SK-MEL-5): 3.58 µM (inactive)
GI50 (M14): 7.41 µM (inactive)
GI50 (UACC-62): 6.98 µM (inactive)
GI50 (XF498): 6.18 µM (inactive)
GI50 (SNB-75): 2.57 µM (inactive)
GI50 (A549): 36.4 µM (inactive)
GI50 (SW-620): 5.27 µM (inactive)
GI50 (A498): 34.1 µM (inactive)
GI50 (NCI-H226): 43.2 µM (inactive)
GI50 (SNB-19): 5.07 µM (inactive)
GI50 (NCI-H23): 5.06 µM (inactive)
GI50 (RXF 631): 38 µM (inactive)
GI50 (HOP-18): > 22.1 µM (inactive)
GI50 (LXFL 529): 5.25 µM (inactive)
GI50 (M19-MEL): 6.98 µM (inactive)
GI50 (NCI-H460): 25.2 µM (inactive)
GI50 (OVCAR-8): 15.6 µM (inactive)
GI50 (HOP-62): 20.5 µM (inactive)
GI50 (OVCAR-3): 2.4 µM (inactive)
GI50 (MOLT-4): 5.5 µM (inactive)
GI50 (SF-268): 5.75 µM (inactive)
GI50 (EKVX): 39 µM (inactive)
GI50 (HCT-116): 5.57 µM (inactive)
GI50 (SR): 5.69 µM (inactive)
GI50 (SNB-78): 4.54 µM (inactive)
GI50 (CAKI-1): 78.5 µM (inactive)
GI50 (786-0): 16.6 µM (inactive)
GI50 (HOP-92): 4.59 µM (inactive)
GI50 (HL-60): 2.21 µM (inactive)
GI50 (UACC-257): 30.1 µM (inactive)
GI50 (K562): 3.64 µM (inactive)
GI50 (UO-31): > 100 µM (inactive)
GI50 (Malme-3M): 16.5 µM (inactive)
GI50 (SN12C): 12.8 µM (inactive)
GI50 (SK-OV-3): 15 µM (inactive)
GI50 (SK-MEL-2): 3.13 µM (inactive)
GI50 (RXF 393): 14.6 µM (inactive)
GI50 (SF-539): 3.2 µM (inactive)
GI50 (COLO 205): 3.87 µM (inactive)
GI50 (OVCAR-4): 27.5 µM (inactive)
GI50 (KM12): 3.13 µM (inactive)
GI50 (ACHN): 74.6 µM (inactive)
GI50 (IGROV-1): 32.1 µM (inactive)
GI50 (SK-MEL-28): 24.8 µM (inactive)
GI50 (HCT-15): > 95.1 µM
GI50 (TK-10): 64.3 µM (inactive)
GI50 (NCI-H522): 2.42 µM (inactive)
GI50 (CCRF-CEM): 3.49 µM (inactive)
GI50 (HT-29): 3.91 µM (inactive)
GI50 (DMS-273): 5.07 µM (inactive)
GI50 (LOX IMVI): 6.82 µM (inactive)
GI50 (HCC 2998): 8.05 µM (inactive)

COC1=CC(=O)C2(C=C1OC)OC[C@H]1Oc3c(ccc4c3C=CC(C)(C)O4)C(=O)[C@H]12 (some centres undefined)
GI50 (DLD-1): 43.6 µM (inactive)
GI50 (KM-20L2): 46.1 µM (inactive)
GI50 (RPMI-8226): 22.6 µM (inactive)
GI50 (U-251): 56.2 µM (inactive)
GI50 (OVCAR-5): > 100 µM (inactive)
GI50 (M14): 41.7 µM (inactive)
GI50 (UACC-62): 47.1 µM (inactive)
GI50 (XF498): 40.9 µM (inactive)
GI50 (SNB-75): 32.1 µM (inactive)
GI50 (A549): 42.5 µM (inactive)
GI50 (SW-620): 35 µM (inactive)
GI50 (A498): 63.7 µM (inactive)
GI50 (SNB-19): 47 µM (inactive)
GI50 (NCI-H23): 23.7 µM (inactive)
GI50 (RXF 631): > 100 µM (inactive)
GI50 (LXFL 529): 33.3 µM (inactive)
GI50 (M19-MEL): 40.8 µM (inactive)
GI50 (NCI-H460): 49.2 µM (inactive)
GI50 (OVCAR-8): 37.5 µM (inactive)
GI50 (HOP-62): 92.7 µM (inactive)
GI50 (OVCAR-3): 42.4 µM (inactive)
GI50 (MOLT-4): 27.4 µM (inactive)
GI50 (EKVX): 27.4 µM (inactive)
GI50 (HCT-116): 28.4 µM (inactive)
GI50 (SNB-78): 37.8 µM (inactive)
GI50 (DMS-114): 25.2 µM (inactive)
GI50 (786-0): 68.1 µM (inactive)
GI50 (HOP-92): 7.64 µM (inactive)
GI50 (HL-60): 15.6 µM (inactive)
GI50 (UACC-257): 37.8 µM (inactive)
GI50 (K562): 36.8 µM (inactive)
GI50 (UO-31): 60.5 µM (inactive)
GI50 (Malme-3M): 57 µM (inactive)
GI50 (SK-OV-3): 70.1 µM (inactive)
GI50 (SK-MEL-2): 45.2 µM (inactive)
GI50 (RXF 393): 30.2 µM (inactive)
GI50 (SF-539): 34.5 µM (inactive)
GI50 (COLO 205): 36.6 µM (inactive)
GI50 (KM12): 40.3 µM (inactive)
GI50 (ACHN): 44.8 µM (inactive)
GI50 (IGROV-1): 40.3 µM (inactive)
GI50 (SK-MEL-28): 41.2 µM (inactive)
GI50 (TK-10): 79.3 µM (inactive)
GI50 (NCI-H522): 16.7 µM (inactive)
GI50 (CCRF-CEM): 28.1 µM (inactive)
GI50 (HT-29): 49.2 µM (inactive)
GI50 (DMS-273): 35.1 µM (inactive)
GI50 (LOX IMVI): 78.9 µM (inactive)
GI50 (HCC 2998): 86.5 µM (inactive)

CCOC(=O)C(C(O)c1ccc([N+](=O)[O-])cc1)P(=O)(OCC)OCC (centres undefined)
GI50 (DLD-1): > 100 µM (inactive)
GI50 (KM-20L2): > 100 µM (inactive)
GI50 (SF-295): > 100 µM (inactive)
GI50 (RPMI-8226): 32.9 µM (inactive)
GI50 (U-251): > 100 µM (inactive)
GI50 (OVCAR-5): > 100 µM (inactive)
GI50 (SK-MEL-5): 99.8 µM (inactive)
GI50 (M14): > 100 µM (inactive)
GI50 (UACC-62): 52.1 µM (inactive)
GI50 (XF498): > 100 µM (inactive)
GI50 (SNB-75): 35.4 µM (inactive)
GI50 (A549): > 100 µM (inactive)
GI50 (SW-620): 57.3 µM (inactive)
GI50 (A498): > 100 µM (inactive)
GI50 (NCI-H226): > 100 µM (inactive)
GI50 (SNB-19): > 100 µM (inactive)
GI50 (NCI-H23): > 100 µM (inactive)
GI50 (RXF 631): > 100 µM (inactive)
GI50 (HOP-18): > 100 µM (inactive)
GI50 (LXFL 529): > 100 µM (inactive)
GI50 (M19-MEL): 77.6 µM (inactive)
GI50 (NCI-H460): > 100 µM (inactive)
GI50 (OVCAR-8): 95.1 µM (inactive)
GI50 (HOP-62): > 100 µM (inactive)
GI50 (OVCAR-3): > 100 µM (inactive)
GI50 (MOLT-4): 57.9 µM (inactive)
GI50 (SF-268): > 100 µM (inactive)
GI50 (EKVX): > 100 µM (inactive)
GI50 (HCT-116): > 100 µM (inactive)
GI50 (CAKI-1): > 100 µM (inactive)
GI50 (786-0): > 100 µM (inactive)
GI50 (HOP-92): 34 µM (inactive)
GI50 (HL-60): 16.7 µM (inactive)
GI50 (K562): 31.3 µM (inactive)
GI50 (Malme-3M): > 100 µM (inactive)
GI50 (SN12C): > 100 µM (inactive)
GI50 (SK-MEL-2): > 100 µM (inactive)
GI50 (RXF 393): 36.5 µM (inactive)
GI50 (SF-539): > 100 µM (inactive)
GI50 (OVCAR-4): > 100 µM (inactive)
GI50 (KM12): > 100 µM (inactive)
GI50 (ACHN): > 100 µM (inactive)
GI50 (IGROV-1): > 100 µM (inactive)
GI50 (SK-MEL-28): > 100 µM (inactive)
GI50 (HCT-15): > 100 µM
GI50 (TK-10): > 100 µM (inactive)
GI50 (NCI-H522): 29.2 µM (inactive)
GI50 (CCRF-CEM): 35.5 µM (inactive)
GI50 (HT-29): > 100 µM (inactive)
GI50 (DMS-273): > 100 µM (inactive)
GI50 (LOX IMVI): 72.9 µM (inactive)
GI50 (HCC 2998): > 100 µM (inactive)
